Test results taken from article PMC5733478, “A Non-imaging High Throughput Approach to Chemical Library Screening at the Unmodified Adenosine-A3 Receptor in Living Cells” (Frontiers in Pharmacology, 2017).
Structures can show the parent of a compound that is named as a salt.

What follows are compounds tested against T1, human A3AR (Homo sapiens, UniProt P0DMS8) (assay: LOPAC library primary screen: single concentration (10 μM) inhibition of 25 nM CA200645 binding, PHERAstar FS). Settings: not given.
T1 construct: expressed in transfected cells
T1 sequence (P0DMS8 1-318): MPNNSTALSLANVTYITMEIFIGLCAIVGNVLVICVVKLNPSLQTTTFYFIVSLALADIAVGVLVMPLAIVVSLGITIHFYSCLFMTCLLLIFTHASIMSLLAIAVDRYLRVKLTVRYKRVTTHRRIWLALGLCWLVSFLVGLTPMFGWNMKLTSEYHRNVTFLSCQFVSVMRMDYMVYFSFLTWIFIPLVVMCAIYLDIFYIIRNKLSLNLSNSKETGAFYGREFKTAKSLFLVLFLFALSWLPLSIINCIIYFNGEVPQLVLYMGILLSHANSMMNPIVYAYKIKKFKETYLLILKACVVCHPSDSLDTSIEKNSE
With `Cl.NCCS` [Cysteamine hydrochloride] the “% 25 nM CA200645 binding” value was 89.3 ± 6.0%. For `S=C([S-])OC1CC2CC1C1CCCC21.[K+]` [D-609 potassium], the “% 25 nM CA200645 binding” value was 95.5 ± 4.1%. For `N[C@H](CO)C(=O)O` [D-Serine], the “% 25 nM CA200645 binding” value was 100.2 ± 11.0%. For `OC[C@H]1OC(n2cnc3ccccc32)[C@H](O)[C@@H]1O` (stereo partly drawn) [D-ribofuranosylbenzimidazole], the “% 25 nM CA200645 binding” value was 98.4 ± 15.0%. For `O=C1NC(=O)c2cc(Nc3ccccc3)c(Nc3ccccc3)cc21` [DAPH], the “% 25 nM CA200645 binding” value was 31.8 ± 9.9%. With `Clc1ccc(N2C[C@H]3CC[C@@H](C2)N3)nn1` [DBO-83] the “% 25 nM CA200645 binding” value was 97.7 ± 11.0%. With `CCn1c(=O)[nH]c2cc(Cl)c(Cl)cc21` [DCEBIO] the “% 25 nM CA200645 binding” value was 87.8 ± 8.9%. In the case of `Fc1cccc(/C=N/N=C/c2cccc(F)c2)c1` [DFB], the “% 25 nM CA200645 binding” value is reported as 94.8 ± 1.4%. In the case of `CCC(=O)N1CCN(C(=O)c2ccccc2)CC1` [DM 235], the “% 25 nM CA200645 binding” value is reported as 105.1 ± 10.7%. For `O=[N+]([O-])c1cc2nc(O)c(O)nc2cc1[N+](=O)[O-]` [DNQX], the “% 25 nM CA200645 binding” value was 85.0 ± 6.8%. With `CC(C)[C@@H]1CC[C@@H](C)C[C@@H]1P(=O)(c1ccccc1)c1ccccc1` [DPO-1] the “% 25 nM CA200645 binding” value was 89.1 ± 3.8%. With `O=c1c(-c2ccc(O)cc2)coc2cc(O)ccc12` [Daidzein] the “% 25 nM CA200645 binding” value was 88.9 ± 6.0%. For `C#C[C@]1(O)CC[C@H]2[C@@H]3CCC4=Cc5oncc5C[C@]4(C)[C@H]3CC[C@@]21C` [Danazol], the “% 25 nM CA200645 binding” value was 86.4 ± 9.1%. In the case of `O=C1CN(/N=C/c2ccc(-c3ccc([N+](=O)[O-])cc3)o2)C(O)=N1` [Dantrolene sodium], the “% 25 nM CA200645 binding” value is reported as 94.8 ± 9.5%. For `O=c1ccc2ccc(O)c(O)c2o1` [Daphnetin], the “% 25 nM CA200645 binding” value was 102.0 ± 13.1%. In the case of `N=C(N)N1CCc2ccccc2C1` [Debrisoquin sulfate], the “% 25 nM CA200645 binding” value is reported as 81.0 ± 16.3%. For `C[N+](C)(C)CCCCCCCCCC[N+](C)(C)C.[Br-].[Br-]` [Decamethonium dibromide], the “% 25 nM CA200645 binding” value was 106.4 ± 21.3%. In the case of `CN(C)[C@@H]1C(O)=C(C(N)=O)C(=O)[C@@]2(O)C(O)=C3C(=O)c4c(O)ccc(Cl)c4[C@@H](O)[C@H]3C[C@@H]12` [Demeclocycline hydrochloride], the “% 25 nM CA200645 binding” value is reported as 98.1 ± 10.5%. `CN(N=O)c1cc(O)ccc1O` [Dephostatin] was tested, and the “% 25 nM CA200645 binding” value was 75.4 ± 19.6%. In the case of `Cc1cc(N)c2ccccc2[n+]1CCCCCCCCCC[n+]1c(C)cc(N)c2ccccc21.[Cl-].[Cl-]` [Dequalinium chloride hydrate], the “% 25 nM CA200645 binding” value is reported as 86.1 ± 10.0%. With `O=c1c2ccccc2[nH]c(=S)n1CCN1CCC(=C(c2ccc(F)cc2)c2ccc(F)cc2)CC1` [Diacylglycerol Kinase Inhibitor II] the “% 25 nM CA200645 binding” value was 51.5 ± 9.4%. With `CC1=NS(=O)(=O)c2cc(Cl)ccc2N1` [Diazoxide] the “% 25 nM CA200645 binding” value was 101.5 ± 12.2%. For `O=C(O)Cc1ccccc1Nc1c(Cl)cccc1Cl` [Diclofenac sodium], the “% 25 nM CA200645 binding” value was 100.0 ± 12.4%. For `O=C(O)CN(CCN(CC(=O)O)CC(=O)O)CCN(CC(=O)O)CC(=O)O` [Diethylenetriaminepentaacetic acid], the “% 25 nM CA200645 binding” value was 99.2 ± 10.9%. For `Br.CO[C@H]1CC=C2CCN3CCC4=C(CC(=O)OC4)[C@]23C1` [Dihydro-beta-erythroidine hydrobromide], the “% 25 nM CA200645 binding” value was 94.0 ± 5.4%. With `COc1cc(CNC(=O)CCCCCCC(C)C)ccc1O` [Dihydrocapsaicin] the “% 25 nM CA200645 binding” value was 86.7 ± 9.6%. In the case of `CN1C[C@H](C(=O)N[C@]2(C)O[C@@]3(O)[C@@H]4CCCN4C(=O)[C@H](Cc4ccccc4)N3C2=O)C[C@@H]2c3cccc4[nH]cc(c34)C[C@H]21` [Dihydroergotamine methanesulfonate], the “% 25 nM CA200645 binding” value is reported as 99.2 ± 11.1%. `CC(C)[C@H]1CN[C@H](C(=O)O)[C@H]1CC(=O)O` [Dihydrokainic acid] was tested, and the “% 25 nM CA200645 binding” value was 92.4 ± 30.0%. For `C[C@@H]1O[C@@H](O[C@H]2C[C@@H](O)[C@]3(CO)[C@H]4[C@H](O)C[C@]5(C)[C@@H]([C@@H]6COC(=O)C6)CC[C@]5(O)[C@@H]4CC[C@]3(O)C2)[C@H](O)[C@H](O)[C@H]1O` [Dihydroouabain], the “% 25 nM CA200645 binding” value was 102.4 ± 11.9%. `COc1ccc([C@@H]2Sc3ccccc3N(CCN(C)C)C(=O)[C@@H]2OC(C)=O)cc1` [Diltiazem hydrochloride] was tested, and the “% 25 nM CA200645 binding” value was 97.4 ± 8.9%. In the case of `c1ccc2c(c1)[I+]c1ccccc1-2` [Diphenyleneiodonium chloride], the “% 25 nM CA200645 binding” value is reported as 92.7 ± 5.6%. In the case of `CCCN(CCC)CCc1ccc(O)c(O)c1` [Dipropyldopamine hydrobromide], the “% 25 nM CA200645 binding” value is reported as 101.8 ± 8.0%. `OCCN(CCO)c1nc(N2CCCCC2)c2nc(N(CCO)CCO)nc(N3CCCCC3)c2n1` [Dipyridamole] was tested, and the “% 25 nM CA200645 binding” value was 78.8 ± 14.8%. With `CC(C)N(CCC(C(N)=O)(c1ccccc1)c1ccccn1)C(C)C` (stereo not drawn) [Disopyramide phosphate] the “% 25 nM CA200645 binding” value was 98.5 ± 7.6%. With `CC(C)N(CCC(C(N)=O)(c1ccccc1)c1ccccn1)C(C)C` (stereo not drawn) [Disopyramide] the “% 25 nM CA200645 binding” value was 78.9 ± 27.0%. `CC(CCc1ccc(O)cc1)NCCc1ccc(O)c(O)c1` (stereo not drawn) [Dobutamine hydrochloride] was tested, and the “% 25 nM CA200645 binding” value was 101.9 ± 15.9%. With `O=c1[nH]c2ccccc2n1CCCN1CCC(n2c(=O)[nH]c3cc(Cl)ccc32)CC1` [Domperidone] the “% 25 nM CA200645 binding” value was 99.6 ± 10.5%. With `NCCc1ccc(O)c(O)c1` [Dopamine hydrochloride] the “% 25 nM CA200645 binding” value was 93.0 ± 11.1%. `CN(C)CCC=C1c2ccccc2COc2ccccc21` [Doxepin hydrochloride] was tested, and the “% 25 nM CA200645 binding” value was 110.0 ± 13.2%. `CN(C)CCOC(C)(c1ccccc1)c1ccccn1` (stereo not drawn) [Doxylamine succinate] was tested, and the “% 25 nM CA200645 binding” value was 107.4 ± 0.7%. In the case of `O=C(CCCN1CC=C(n2c(=O)[nH]c3ccccc32)CC1)c1ccc(F)cc1` [Droperidol], the “% 25 nM CA200645 binding” value is reported as 101.2 ± 18.5%. For `Cc1cc(Cl)ccc1OCCCC(=O)NO` [Droxinostat], the “% 25 nM CA200645 binding” value was 96.3 ± 1.9%. With `CCOC(=O)C1=C(O)C(=O)N(Cc2ccccc2)C1` [EBPC] the “% 25 nM CA200645 binding” value was 98.2 ± 13.5%. In the case of `CCCCCCCCCCCCCCCCCCOCC(COP(=O)([O-])OCC[N+](C)(C)C)OC` (stereo not drawn) [ET-18-OCH3], the “% 25 nM CA200645 binding” value is reported as 80.6 ± 4.5%. With `CC[N+](C)(C)c1cccc(O)c1` [Edrophonium chloride] the “% 25 nM CA200645 binding” value was 88.1 ± 20.0%. For `CN1CCC[C@@H]1Cc1c[nH]c2ccc(CCS(=O)(=O)c3ccccc3)cc12` [Eletriptan hydrobromide], the “% 25 nM CA200645 binding” value was 96.9 ± 5.3%. In the case of `Cc1c2ccncc2c(C)c2c1[nH]c1ccccc12` [Ellipticine], the “% 25 nM CA200645 binding” value is reported as 78.2 ± 23.8%. For `CC[C@H]1CN2CCc3cc(OC)c(OC)cc3[C@@H]2C[C@@H]1C[C@H]1NCCc2cc(OC)c(OC)cc21` [Emetine dihydrochloride hydrate], the “% 25 nM CA200645 binding” value was 102.7 ± 9.1%. `Cc1cc(O)c2c(c1)C(=O)c1cc(O)cc(O)c1C2=O` [Emodin] was tested, and the “% 25 nM CA200645 binding” value was 52.8± 4.4%. `C[C@H](N[C@@H](CCc1ccccc1)C(=O)O)C(=O)N1CCC[C@H]1C(=O)O.O.O` [Enalaprilat dihydrate] was tested, and the “% 25 nM CA200645 binding” value was 95.6 ± 2.1%. For `CSc1ccc(C(=O)c2[nH]c(=O)[nH]c2C)cc1` [Enoximone], the “% 25 nM CA200645 binding” value was 102.3 ± 5.2%. For `CC(C)C[C@H](NC(=O)[C@H](O)[C@H](N)Cc1ccccc1)C(=O)O` [Epibestatin hydrochloride], the “% 25 nM CA200645 binding” value was 102.9 ± 13.0%. In the case of `NC1=NCC2c3ccccc3Cc3ccccc3N12` (stereo not drawn) [Epinastine hydrochloride], the “% 25 nM CA200645 binding” value is reported as 96.6 ± 14.2%. `CCCCc1ncc(/C=C(\Cc2cccs2)C(=O)O)n1Cc1ccc(C(=O)O)cc1` [Eprosartan mesylate] was tested, and the “% 25 nM CA200645 binding” value was 97.5 ± 15.0%. With `COc1ccc2[n-]c([S@@+]([O-])Cc3ncc(C)c(OC)c3C)nc2c1.COc1ccc2[n-]c([S@@+]([O-])Cc3ncc(C)c(OC)c3C)nc2c1.O.O.[Mg+2]` [Esomeprazole magnesium dihydrate] the “% 25 nM CA200645 binding” value was 81.5 ± 16.8%. In the case of `C[C@]12CC[C@@H]3c4ccc(O)cc4CC[C@H]3[C@@H]1CCC2=O` [Estrone], the “% 25 nM CA200645 binding” value is reported as 91.0 ± 8.5%. With `CCN(CC)C(C)CN1c2ccccc2Sc2ccccc21` (stereo not drawn) [Ethopropazine hydrochloride] the “% 25 nM CA200645 binding” value was 108.3 ± 15.2%. For `CCC1(C)CC(=O)NC1=O` (stereo not drawn) [Ethosuximide], the “% 25 nM CA200645 binding” value was 88.4 ± 5.5%. For `CCc1cccc2c3c([nH]c12)C(CC)(CC(=O)O)OCC3` (stereo not drawn) [Etodolac], the “% 25 nM CA200645 binding” value was 97.1 ± 13.7%.

Same assay, conditions: 10 μM compound, 25 nM CA200645, A3AR CHO cells
In the case of `C#CCn1c(=O)c2c(ncn2C)n(C)c1=O` [DMPX, reference compound], the “hit in LOPAC primary screen (inhibited the binding of CA200645 by >40%)” value is reported as “identified”.

Same assay, conditions: % of control wells (1% DMSO and 25 nM CA200645); compounds at 10 µM; whole live cells expressing the A3AR; mean ± SD, three experiments in duplicate
In the case of `OC(CN1CCC(Cc2ccc(F)cc2)CC1)c1ccc(Cl)cc1` (stereo not drawn) [Eliprodil], the “% 25 nM CA200645 binding” value is reported as 98.8 ± 8.5%.

Same assay, conditions: compounds tested at 10 µM; % of control wells (1% DMSO and 25 nM CA200645); whole live cells expressing the A3AR; mean ± SD, three experiments in duplicate
With `N[C@H](CCCP(=O)(O)O)C(=O)O` [D(-)-2-Amino-5-phosphonopentanoic acid] the “% 25 nM CA200645 binding” value was 109.4 ± 11.9%. With `CCC1(C2=NCCN2)Cc2ccccc2O1` (stereo not drawn) [Efaroxan hydrochloride] the “% 25 nM CA200645 binding” value was 95.2 ± 6.3%.
